Marks after values point to notes of the source that are not given here.
Key:
NOD/Itj mice [1] = test: Lymphocyte infiltration in submandibular gland of NOD/Itj mice (HE staining, Image J); assay type: in vivo; settings: 14th week, gastric gavage from 8th week, microcapsules 0.4 mmol/kg NO3−, NaNO3 0.4 mmol/kg, Vc 2 mmol/kg
Experimental: The salivary flow rate was measured every two weeks from the 8th week after birth, and the saliva was collected. At the same time, the submandibular gland samples were collected and stained with HE for histological observation, and the degree of lymphocyte infiltration was analyzed by Image J.
After the experimental animals were sacrificed, they were placed on supine position, disinfected, and the neck was incised to dissect the submandibular gland completely. The tissues were washed with PBS, cut into 0.2 cmx 0.2 cm, and fixed in 4% paraformaldehyde (pH 7.2) at 4° C. for 24-48 h. After dehydration, wax impregnation and embedding, the tissues were sectioned at a thickness of 4 μm and baked, followed by hematoxylin and eosin (HE) staining. The remaining fresh samples were placed in a refrigerator at −80° C.
(§1) Saliva flow rate was measured […].

[2] = In vivo test: nitrate content in the blood of mice after single gastric gavage; settings: 2 mmol/kg sodium nitrate, once
Experimental: Blood was collected from vena caudalis at 0 h, and 2, 4, 6, 12, and 24 h after gastric gavage, respectively.

NOD/Itj mice [3] = test: Salivary flow rate of NOD/Itj mice (animal model of SS); assay type: in vivo; settings: for effect on salivary flow rate of NOD/Itj mice (in words): gastric gavage; for Salivary flow rate (mean value ± SD): NOD/Itj mice, gastric gavage from 8th week, microcapsules 0.4 mmol/kg NO3−, NaNO3 0.4 mmol/kg, Vc 2 mmol/kg
Experimental: Therefore, the NOD/Itj mouse can be used as an animal model of SS. Subsequently, the microcapsules of the present invention were administered by gastric gavage, the saliva flow rate was monitored, and the experimental samples were collected at the 12th week to observe the prophylactic and therapeutic effects of the microcapsules of the present invention on SS.
After proper anaesthesia, the mice were injected I.P. with pilocarpine nitrate in aseptic normal saline at a concentration of 0.4 mg/ml and a dosage of 0.5 mg/100 g b.w. After the injection, the mice were laid on a 20° inclined mouse board on prone position, with the head slightly inclined downward, so that the head was in a slightly lower position. About 5 minutes after the injection, after the first drop of saliva from the mouth of the mouse, after 5 minutes, the time was recorded and the saliva was collected, and the amount of saliva was collected for 20 minutes (the amount of saliva is detected by inserting a small sterile cotton ball with known weight under the tongue of mouse, and weighing cotton ball 20 minutes later).
as §1

[4] = after oral administration; cited from earlier work

Structure (SMILES): O=[N+]([O-])[O-].[Na+] [NaNO3, sodium nitrate]
- Infiltration area of the submandibular gland (NOD/Itj mice [1]): 4.42 ± 0.54^b %
- Nitrate content in the blood of the mice after single administration ([2]; 0 h): 41.8 µmol/L
- Nitrate content in the blood of the mice after single administration ([2]; 2 h): 1052.8 µmol/L
- Nitrate content in the blood of the mice after single administration ([2]; 4 h): 572.4 µmol/L
- Nitrate content in the blood of the mice after single administration ([2]; 6 h): 297.4 µmol/L
- Nitrate content in the blood of the mice after single administration ([2]; 12 h): 45.3 µmol/L
- Nitrate content in the blood of the mice after single administration ([2]; 24 h): 32.7 µmol/L
- effect on salivary flow rate of NOD/Itj mice (in words) (NOD/Itj mice [3]): no obvious influence
- Salivary flow rate (mean value ± SD) (NOD/Itj mice [3]; week 8): 0.078 ± 0.011 g/10 min
- Salivary flow rate (mean value ± SD) (NOD/Itj mice [3]; week 9): 0.068 ± 0.006 g/10 min
- Salivary flow rate (mean value ± SD) (NOD/Itj mice [3]; week 10): 0.060 ± 0.004 g/10 min
- Salivary flow rate (mean value ± SD) (NOD/Itj mice [3]; week 11): 0.057 ± 0.004 g/10 min
- Salivary flow rate (mean value ± SD) (NOD/Itj mice [3]; week 12): 0.061 ± 0.009 g/10 min
- Salivary flow rate (mean value ± SD) (NOD/Itj mice [3]; week 13): 0.062 ± 0.007 g/10 min
- Salivary flow rate (mean value ± SD) (NOD/Itj mice [3]; week 14): 0.059 ± 0.009 g/10 min

Structure (SMILES): O=C1O[C@H]([C@@H](O)CO)C(O)=C1O [Vc, vitamin C]
- Infiltration area of the submandibular gland (NOD/Itj mice [1]): 5.16 ± 0.58%
- half-life in vivo [4]: 2 h
- effect on salivary flow rate of NOD/Itj mice (in words) (NOD/Itj mice [3]): no obvious influence
- Salivary flow rate (mean value ± SD) (NOD/Itj mice [3]; week 8): 0.077 ± 0.012 g/10 min
- Salivary flow rate (mean value ± SD) (NOD/Itj mice [3]; week 9): 0.063 ± 0.008 g/10 min
- Salivary flow rate (mean value ± SD) (NOD/Itj mice [3]; week 10): 0.049 ± 0.007 g/10 min
- Salivary flow rate (mean value ± SD) (NOD/Itj mice [3]; week 11): 0.041 ± 0.008 g/10 min
- Salivary flow rate (mean value ± SD) (NOD/Itj mice [3]; week 12): 0.038 ± 0.006 g/10 min
- Salivary flow rate (mean value ± SD) (NOD/Itj mice [3]; week 13): 0.035 ± 0.008 g/10 min
- Salivary flow rate (mean value ± SD) (NOD/Itj mice [3]; week 14): 0.034 ± 0.007 g/10 min

Reference: US20240342135A1, “USE OF NITRATE AND VITAMIN C MICROCAPSULE FOR TREATING SICCA SYNDROME” (CAPITAL MEDICAL UNIVERSITY, priority 2021, published 2024)
